In one test the target is T1, MerTK (Homo sapiens, UniProt Q12866).
T1 construct: Seed HUVECs (10K cells/well) in EBM-2 complete media; host or cells: HUVEC
T1 sequence (Q12866 21-999): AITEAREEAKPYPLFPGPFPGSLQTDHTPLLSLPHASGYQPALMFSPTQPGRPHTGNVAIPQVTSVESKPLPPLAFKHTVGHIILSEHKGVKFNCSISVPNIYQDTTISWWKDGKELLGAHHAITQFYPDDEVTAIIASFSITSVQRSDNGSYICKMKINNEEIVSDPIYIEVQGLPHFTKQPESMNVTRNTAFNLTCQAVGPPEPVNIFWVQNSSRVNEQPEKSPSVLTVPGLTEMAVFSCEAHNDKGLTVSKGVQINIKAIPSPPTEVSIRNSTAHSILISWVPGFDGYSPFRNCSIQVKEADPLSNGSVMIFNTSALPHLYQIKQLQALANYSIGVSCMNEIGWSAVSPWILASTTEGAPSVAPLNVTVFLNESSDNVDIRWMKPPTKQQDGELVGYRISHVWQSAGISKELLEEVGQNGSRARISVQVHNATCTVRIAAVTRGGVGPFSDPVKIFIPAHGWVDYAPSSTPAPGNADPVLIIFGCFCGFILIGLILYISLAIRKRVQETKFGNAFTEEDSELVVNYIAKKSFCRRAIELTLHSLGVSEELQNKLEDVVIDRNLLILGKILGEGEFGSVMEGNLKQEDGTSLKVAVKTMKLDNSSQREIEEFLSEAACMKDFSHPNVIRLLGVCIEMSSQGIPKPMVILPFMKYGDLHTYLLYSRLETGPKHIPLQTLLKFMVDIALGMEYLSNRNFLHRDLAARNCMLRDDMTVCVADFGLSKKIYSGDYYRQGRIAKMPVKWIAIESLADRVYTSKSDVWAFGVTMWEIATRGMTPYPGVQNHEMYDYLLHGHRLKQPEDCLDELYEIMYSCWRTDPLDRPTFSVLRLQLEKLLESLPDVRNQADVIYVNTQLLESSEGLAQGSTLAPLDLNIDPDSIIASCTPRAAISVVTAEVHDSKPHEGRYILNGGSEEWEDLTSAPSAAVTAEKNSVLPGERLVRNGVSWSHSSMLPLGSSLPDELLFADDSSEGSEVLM
In words: Phospho-AKT HTRF, HUVEC, Mer-XL, 8 pt (pAKT HTRF-HUVEC assay, anti-human MerTK-XL stimulation). Format: cell-based. Conditions: HUVEC cells, pAkt(Ser473) HTRF, anti-human MerTK-XL stimulation 1 ug/mL 10 minutes. As for the experimental part: (§1) Example 13: PAKT HTRF-HUVEC Assay
(§2) Seed HUVECs (10K cells/well) in EBM-2 complete media (EBM-2 basal medium plus EGM-2 BulletKit supplements) overnight at 37° C., 5% CO2 in Costar 96-well white clear-bottom plates. Remove culture media and starve cells for 3-4 hours in 50 μL/well EBM-2 basal medium. Perform serial dilution of compounds in DMSO from 2.5 mM in 4-fold dilutions, and then dilute 1:125 in EBM-2 basal media. Mix 50 μL/well 2× compounds with 50 μL/well HUVECs in duplicate in Costar 96-well white clear-bottom plates. Incubate plates for 1 hour at 37° C., 5% CO2. Cross-link anti-human MerTK antibody to Biotin-SP-conjugated anti-mouse IgG antibody (1:1) to give final concentrations of 5 μg/mL of anti-human MerTK-XL. Stimulate HUVECs with 25 μL/well 5× anti-human MerTK-XL to give final concentrations of 1 ug/mL for 10 minutes at 37° C., 5% CO2. Completely remove media and lyse HUVECs with 40 uL:WELL per well of Cisbio HTRF 1× lysis buffer. Performed pAkt(Ser473) HTRF assay in ProxiPlate-384 Plus, white 384-shallow well microplate according to the vendor protocol and read plates with a SpectralMax Paradigm plate reader. Enter the HTRF values into Athena (Rigel) for curve fitting, EC50 calculation, and database storage.

The target of another test is T2, Axl (Homo sapiens, UniProt P30530).
T2 construct: Seed HUVECs (10K cells/well) in EBM-2 complete media; host or cells: HUVEC
T2 sequence (P30530 26-894): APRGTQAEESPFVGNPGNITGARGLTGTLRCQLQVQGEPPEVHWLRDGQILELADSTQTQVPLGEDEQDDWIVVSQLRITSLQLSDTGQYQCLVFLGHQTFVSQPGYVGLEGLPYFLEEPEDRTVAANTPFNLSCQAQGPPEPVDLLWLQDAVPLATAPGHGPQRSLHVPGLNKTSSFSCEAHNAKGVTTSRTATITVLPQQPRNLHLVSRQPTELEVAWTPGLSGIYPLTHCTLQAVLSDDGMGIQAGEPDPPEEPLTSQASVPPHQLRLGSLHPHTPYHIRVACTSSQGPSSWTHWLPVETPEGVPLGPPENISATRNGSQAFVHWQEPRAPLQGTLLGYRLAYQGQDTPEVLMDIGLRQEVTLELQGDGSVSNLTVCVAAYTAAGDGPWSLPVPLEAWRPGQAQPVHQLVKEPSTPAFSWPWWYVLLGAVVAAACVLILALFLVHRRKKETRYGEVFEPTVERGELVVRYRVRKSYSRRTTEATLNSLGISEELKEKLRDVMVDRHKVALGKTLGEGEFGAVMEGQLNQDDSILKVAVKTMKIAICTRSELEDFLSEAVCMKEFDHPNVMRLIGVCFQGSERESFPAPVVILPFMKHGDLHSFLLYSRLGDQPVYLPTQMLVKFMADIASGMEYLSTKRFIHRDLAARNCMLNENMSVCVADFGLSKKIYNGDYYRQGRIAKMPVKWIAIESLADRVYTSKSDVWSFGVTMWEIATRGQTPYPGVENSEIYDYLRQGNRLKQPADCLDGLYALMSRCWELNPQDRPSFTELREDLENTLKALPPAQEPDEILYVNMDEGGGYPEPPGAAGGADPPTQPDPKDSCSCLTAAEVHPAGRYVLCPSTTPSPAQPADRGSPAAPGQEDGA
In words: Phospho-AKT HTRF, HUVEC, Axl ABX-L, 8 pt. Format: cell-based. Particulars: HUVEC cells, pAkt(Ser473) HTRF, Axl ABX-L stimulation. As for the experimental part:
[The source words this procedure for another target and reports this target under the same test.] as §1, §2

We go through 16 compounds from patent US10851093B2, “Tyrosine kinase inhibitors” (Rigel Pharmaceuticals, Inc., priority 2018, dated 2020).

In the case of `COc1cc2c(Oc3ccc(NC(=O)c4cccc(N5CCOCC5)n4)nc3)ccnc2cc1OCCCN1CCOCC1` [Compound 25, N-(5-((6-methoxy-7-(3-morpholinopropoxy)quinolin-4-yl)oxy)pyridin-2-yl)-6-morpholinopicolinamide], the EC50 came to 14.3 nM at MerTK and 112 nM on Axl.
In the same order, the values of `COc1cc2c(Oc3ccc(NC(=O)c4cc(F)ccn4)nc3)ccnc2cc1OCCCN1CCOCC1` [Compound 31, 4-Fluoro-N-(5-((6-methoxy-7-(3-morpholinopropoxy)quinolin-4-yl)oxy)pyridin-2-yl)picolinamide] are 311 nM and 739 nM.
Take `COc1cc2c(Oc3ccc(NC(=O)c4cc(N5CCC(c6ccccc6)CC5)ccn4)nc3)ccnc2cc1OCCCN1CCOCC1` [Compound 17, N-(5-((6-methoxy-7-(3-morpholinopropoxy)quinolin-4-yl)oxy)pyridin-2-yl)-4-(4-phenylpiperidin-1-yl)picolinamide]: the EC50 at MerTK worked out at 1640 nM; at Axl it was 1370 nM.
For `COc1cc2c(Oc3ccc(NC(=O)c4ncc(Br)s4)nc3)ccnc2cc1OCCCN1CCOCC1` [Compound 44, 5-bromo-N-(5-((6-methoxy-7-(3-morpholinopropoxy)quinolin-4-yl)oxy)pyridin-2-yl)thiazole-2-carboxamide] the same measures were 79.9 nM and 102 nM.
In the same order, the values of `COc1cc2c(Oc3ccc(NC(=O)c4nc5ccccc5c(=O)[nH]4)nc3)ccnc2cc1OCCCN1CCOCC1` [Compound 9, N-(5-((6-Methoxy-7-(3-morpholinopropoxy)quinolin-4-yl)oxy)pyridin-2-yl)-4-oxo-3,4-dihydroquinazoline-2-carboxamide, trifluoroacetic acid] are 42.7 nM and 71.7 nM.
In the same order, the values of `COc1cc2c(Oc3ccc(NC(=O)c4nc(-c5ccccc5)c5c(n4)C4CCN5CC4)nc3)ccnc2cc1OCCCN1CCOCC1` [Compound 35, N-(5-((6-methoxy-7-(3-morpholinopropoxy)quinolin-4-yl)oxy)pyridin-2-yl)-4-phenyl-7,8-dihydro-6H-5,8-ethanopyrido[3,2-d]pyrimidine-2-carboxamide] are 5 nM and 3 nM.
Take `COc1cc2c(Oc3ccc(NC(=O)c4cc(N5CC6(COC6)C5)ccn4)nc3)ccnc2cc1OCCCN1CCOCC1` [Compound 19, N-(5-((6-methoxy-7-(3-morpholinopropoxy)quinolin-4-yl)oxy)pyridin-2-yl)-4-(2-oxa-6-azaspiro[3.3]heptan-6-yl)picolinamide]: the EC50 on MerTK was found to be 505 nM; on Axl it was 568 nM.
In the same order, the values of `COc1cc2c(Oc3ccc(NC(=O)c4cccc(N5CCC(C)(C)CC5)n4)nc3)ccnc2cc1OCCCN1CCOCC1` [Compound 27, 6-(4,4-dimethylpiperidin-1-yl)-N-(5-((6-methoxy-7-(3-morpholinopropoxy)quinolin-4-yl)oxy)pyridin-2-yl)picolinamide] are 102 nM and 84.9 nM.
For `COc1cc2c(Oc3ccc(NC(=O)c4cccc(N5CCCC5)n4)nc3)ccnc2cc1OCCCN1CCOCC1` [Compound 26, N-(5-((6-methoxy-7-(3-morpholinopropoxy)quinolin-4-yl)oxy)pyridin-2-yl)-6-(pyrrolidin-1-yl)picolinamide] the same measures were 7 nM and 32 nM.
`COc1cc2c(Oc3ccc(NC(=O)c4ncc(N5CCCCC5)s4)nc3)ccnc2cc1OCCCN1CCOCC1` [Compound 47, N-(5-((6-methoxy-7-(3-morpholinopropoxy)quinolin-4-yl)oxy)pyridin-2-yl)-5-(piperidin-1-yl)thiazole-2-carboxamide]: the EC50 stood at 119 nM on MerTK and 130 nM on Axl.
For `COc1cc2c(Oc3ccc(NC(=O)c4nc(-c5ccccc5)c5c(n4)C4CCN5CC4)nc3)ccnc2cc1OCc1ccccc1` [Compound 37, N-(5-((7-(benzyloxy)-6-methoxyquinolin-4-yl)oxy)pyridin-2-yl)-4-phenyl-7,8-dihydro-6H-5,8-ethanopyrido[3,2-d]pyrimidine-2-carboxamide] the same measures were 63.6 nM and 38.4 nM.
In the same order, the values of `COc1cc2c(Oc3ccc(NC(=O)c4csc(N5CCC(O)CC5)n4)nc3)ccnc2cc1OCCCN1CCOCC1` [Compound 45, 2-(4-hydroxypiperidin-1-yl)-N-(5-((6-methoxy-7-(3-morpholinopropoxy)quinolin-4-yl)oxy)pyridin-2-yl)thiazole-4-carboxamide, hydrochloric acid] are 459 nM and 649 nM.
For `COc1cc2c(Oc3ccc(NC(=O)c4csc(Br)n4)nc3)ccnc2cc1OCCCN1CCOCC1` [Compound 40, 2-bromo-N-(5-((6-methoxy-7-(3-morpholinopropoxy)quinolin-4-yl)oxy)pyridin-2-yl)thiazole-4-carboxamide] the same measures were 27.2 nM and 147 nM.
With `COc1cc2c(Oc3ccc(NC(=O)c4nc5ccccc5c(=O)[nH]4)nc3)ccnc2cc1OCCCN1CCOCC1` [Compound 12, N-(5-((6-Methoxy-7-(3-morpholinopropoxy)quinolin-4-yl)oxy)pyridin-2-yl)-4-oxo-3,4-dihydroquinazoline-2-carboxamide], the EC50 at MerTK is 72.1 nM; at Axl, 99.4 nM.
In the same order, the values of `COc1cc2c(Oc3ccc(NC(=O)c4cc(N5CCC(O)CC5)ccn4)nc3)ccnc2cc1OCCCN1CCOCC1` [Compound 8, 4-(4-Hydroxypiperidin-1-yl)-N-(5-((6-methoxy-7-(3-morpholino-propoxy)quinolin-4-yl)oxy)pyridin-2-yl)picolinamide, trifluoroacetic acid] are 90.9 nM and 228 nM.
In the same order, the values of `COc1cc2c(Oc3ccc(NC(=O)c4cc(C)ccn4)nc3)ccnc2cc1OCCCN1CCOCC1` [Compound 32, N-(5-((6-Methoxy-7-(3-morpholinopropoxy)quinolin-4-yl)oxy)pyridin-2-yl)-4-methylpicolinamide] are 162 nM and 462 nM.
